According to patent US11752147B2, “Pharmaceutical composition for the treatment of pain” (AZIENDE CHIMICHE RIUNITE ANGELINI FRANCESCO A.C.R.A.F. …, priority 2015, dated 2023):

Key:
[1] = test system: allodynia induced by ligature of the sciatic nerve in rats; experiment: Ligature of the sciatic nerve in rats (allodynia, von Frey); format: in vivo; details: one hour after administration, vs vehicle
Protocol: Male CD rats weighing 200-250 g on arrival were used.
The allodynia was induced by ligature under anaesthesia of the sciatic nerve of the left hind leg [Seltzer Z, Dubner R, Shir Y. A novel behavioural model of neuropathic pain disorders produced in rats by partial sciatic nerve injury. Pain 1990; 43: 205-218; Bennet G J, Xie Y K. A peripheral mononeuropathy in rat that produces disorders of pain sensation like those seen in man. Pain 1988; 33: 87-107].
The pain threshold was measured with a von Frey machine, which makes it possible, by applying a gradual increase in pressure to the paw of the left hind leg of the rat, to record the nociceptive response, expressed in grams, corresponding to the moment at which the animal withdraws the leg.
After-treatment measurement was made at one hour following administration. The analgesic activity is evaluated as % reversal.

[2] = test system: acetic acid-induced writhing in mice; experiment: Acetic acid-induced writhing test in mice; details: vs vehicle
Protocol: (§1) The test compounds were evaluated in the model of acetic acid-induced writhing in mice (Stock J. L. et al., J. Clin. Inv. 2001, 107: 325 331).
(§2) Writhing test is a chemical method used to induce pain of peripheral origin by injection of acetic acid in mice. Analgesic activity is inferred from decrease in the frequency of writhing.
(§3) This test allowed evaluation of the antinociceptive activity of the compounds of the invention in a model of inflammatory pain.
(§4) Writhing is defined as a stretch, tension to one side, extension of hind legs, contraction of the abdomen so that the abdomen of mice touches the floor, turning the trunk (twist).
(§5) Male CD-1 mice weighing 20-25 g were used for the test.
(§6) One hour after the treatment, an intraperitoneal injection of acetic acid (0.7% v/v in physiological saline, 16 μl/g of body weight) was given to the mice to induce inflammatory pain and to check the effects of the test compound on the nociceptive response.
(§7) Five minutes after the administration of acetic acid and for the following 10 minutes the number of writhes was measured, which represents the parameter for evaluation of the nociceptive response. The analgesic activity is evaluated as % inhibition.

[3] = test system: acetic acid-induced writhing in mice; details: mouse, in vivo, po
Protocol: as §1, §2, §3, §4, §5, §6, §7

NCC1(CC(=O)O)CCCCC1 [Gabapentin, gabapentin]
Reversal % ([1]; 3.0 mg/kg): 3.7%
Reversal % ([1]; 100 mg/kg (effective amount)): 37.0%
Writhing number reduction % ([2]; Table 2 TEST 1 (FIG. 2a), 1.5 mg/kg oral): 27.1%
Writhing number reduction % ([2]; Table 2 TEST 2 (FIG. 2b), 5 mg/kg oral): 38.1%
Writhing number reduction % ([2]; Table 2 TEST 3 (FIG. 2c), 15 mg/kg oral): 45.9%
Writhing number reduction % ([2]; Table 3 TEST 1 RATIO 1:20, 1.5 mg/kg oral): 29.2%
Writhing number reduction % ([2]; Table 3 TEST 2 RATIO 1:10, 1.5 mg/kg oral): 27.1%
Writhing number reduction % ([2]; Table 3 TEST 3 RATIO 1:5, 0.75 mg/kg oral): 22.4%
Writhing number reduction % ([2]; Table 3 TEST 4 RATIO 1:1, 0.15 mg/kg gabapentin oral): 28.3%
Writhing number reduction % ([2]; Table 3 TEST 5 RATIO 5:1, 0.15 mg/kg oral): 30.2%
Writhing number reduction % ([2]; Table 3 TEST 6 RATIO 10:1, 0.15 mg/kg oral): 27.2%

O=c1n(CCCN2CCN(c3cccc(Cl)c3)CC2)nc2ccccn12 [Trazodone, trazodone]
Reversal % ([1]; 0.3 mg/kg): 3.1%
Writhing number reduction % ([2]; Table 2 TEST 1 (FIG. 2a), 0.15 mg/kg oral): 16.0%
Writhing number reduction % ([2]; Table 2 TEST 2 (FIG. 2b), 0.5 mg/kg oral): 44.4%
Writhing number reduction % ([2]; Table 2 TEST 3 (FIG. 2c), 1.5 mg/kg oral): 57.1%
Writhing number reduction % ([2]; Table 3 TEST 1 RATIO 1:20, 0.075 mg/kg oral): 2.1%
Writhing number reduction % ([2]; Table 3 TEST 2 RATIO 1:10, 0.15 mg/kg oral): 16.0%
Writhing number reduction % ([2]; Table 3 TEST 3 RATIO 1:5, 0.15 mg/kg oral): 16.3%
Writhing number reduction % ([2]; Table 3 TEST 4 RATIO 1:1, 0.15 mg/kg trazodone oral): 12.2%
Writhing number reduction % ([2]; Table 3 TEST 5 RATIO 5:1, 0.75 mg/kg oral): 57.4%
Writhing number reduction % ([2]; Table 3 TEST 6 RATIO 10:1, 1.5 mg/kg oral): 59.7%
ED50 [3]: 1.2 mg/kg
